Data as given in US6737383B1, “Herbicidal oxadiazolidines” (priority 1999, dated 2004).

Legend:
surinam grass = experiment: Test B pre/postemergence surinam grass; assay type: in vivo, Brachiaria decumbens
In short: (§1)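 Response is a visual 0-to-10 score relative to untreated plants, where 0 means no effect and 10 means complete control, taken twelve to sixteen days after application. Treatments went onto soil at planting and onto foliage of 1- to 4-leaf plants, using a surfactant-containing non-phytotoxic solvent.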

cocklebur = experiment: Test B pre/postemergence cocklebur; assay type: in vivo, Xanthium strumarium
In short: as §1

corn = experiment: Test B pre/postemergence corn; assay type: in vivo, Zea mays
In short: as §1

crabgrass = experiment: Test B pre/postemergence crabgrass; assay type: in vivo, Digitaria sanguinalis
In short: as §1

giant foxtail = experiment: Test B pre/postemergence giant foxtail; assay type: in vivo, Setaria faberii
In short: as §1

morningglory = experiment: Test B pre/postemergence morningglory; assay type: in vivo, Ipomoea hederacea; conditions: for Plant response rating, Morningglory: scale of 0 to 10 where 0 is no effect and 10 is complete control
In short: as §1

pigweed = experiment: Test B pre/postemergence pigweed; assay type: in vivo, Amaranthus retroflexus
In short: as §1

rape = experiment: Test B pre/postemergence rape; assay type: in vivo, Brassica napus
In short: as §1

sugar beet = experiment: Test B pre/postemergence sugar beet; assay type: in vivo, Beta vulgaris
In short: as §1

wheat = experiment: Test B pre/postemergence wheat; assay type: in vivo, Triticum aestivum
In short: as §1

wild oat = experiment: Test B pre/postemergence wild oat; assay type: in vivo, Avena fatua
In short: as §1

purple nutsedge = experiment: Test B pre/postemergence purple nutsedge; assay type: in vivo, Cyperus rotundus
In short: as §1

rice = experiment: Test B flood test rice; assay type: in vivo, Oryza sativa
In short: (§2)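 Plants were grown to the 2-leaf stage before treatment with test chemical, then held in a greenhouse for twelve to sixteen days. Injury was visually rated against untreated controls on a 0–10 scale, where 0 is no effect and 10 is complete control.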

smallflower flatsedge = experiment: Test B flood test smallflower flatsedge; assay type: in vivo, Cyperus difformis
In short: as §2

duck salad = experiment: Test B flood test duck salad; assay type: in vivo, Heteranthera limosa
In short: as §2

bamyardgrass = experiment: Test B flood test barnyardgrass; assay type: in vivo, Echinochloa crus-galli
In short: as §2

[1] = Postemergence, Rate 500 g/ha, scale of 0 to 10 where 0 is no effect and 10 is complete control
[2] = Preemergence, Rate 62 g/ha, scale of 0 to 10 where 0 is no effect and 10 is complete control
[3] = Preemergence, Rate 125 g/ha, scale of 0 to 10 where 0 is no effect and 10 is complete control
[4] = Preemergence, Rate 250 g/ha, scale 0 to 10, 0 is no effect, 10 is complete control
[5] = Preemergence, Rate 500 g/ha, scale 0 to 10, 0 is no effect, 10 is complete control
[6] = Rate 62 g/ha, Postemergence, scale 0 to 10 (0 no effect, 10 complete control)
[7] = Rate 125 g/ha, Postemergence, scale 0 to 10, 0 is no effect, 10 is complete control
[8] = Postemergence, Rate 250 g/ha, scale 0 to 10
[9] = Postemergence block (flood test species), Rate 250 g/ha, scale 0 to 10
[10] = Postemergence section (flood test species), Rate 500 g/ha, scale of 0 to 10 where 0 is no effect and 10 is complete control
[11] = Rate 62 g/ha, Postemergence (flood test), scale 0 to 10, 0 no effect, 10 complete control
[12] = Rate 125 g/ha, Postemergence section (flood test species), scale 0 to 10, 0 is no effect, 10 is complete control

CC(C)N(C(=O)n1oc(=O)n(CC(=O)N(C)C)c1=O)c1ccc(F)cc1F [Compound 440]
B. signalgrass plant response rating (surinam grass; Postemergence, Rate 250 g/ha, scale 0 to 10, 0 no effect, 10 complete control): 2
B. signalgrass plant response rating (surinam grass; [1]): 8
Plant response rating, B. signalgrass (surinam grass; [2]): 1
Plant response rating, B. signalgrass (surinam grass; [3]): 4
B. signalgrass plant response rating (surinam grass; [4]): 8
B. signalgrass plant response rating (surinam grass; [5]): 8
B. signalgrass plant response rating (surinam grass; [6]): 0
B. signalgrass plant response rating (surinam grass; [7]): 0
Cocklebur plant response rating (cocklebur; [8]): 0
Cocklebur plant response rating (cocklebur; [1]): 0
Plant response rating, Cocklebur (cocklebur; [3]): 0
Cocklebur plant response rating (cocklebur; [4]): 0
Cocklebur plant response rating (cocklebur; [5]): 0
Cocklebur plant response rating (cocklebur; [6]): 0
Cocklebur plant response rating (cocklebur; [7]): 0
Corn plant response rating (corn; [8]): 0
Corn plant response rating (corn; [1]): 0
Plant response rating, Corn (corn; [2]): 0
Plant response rating, Corn (corn; [3]): 0
Corn plant response rating (corn; [4]): 0
Corn plant response rating (corn; [5]): 0
Corn plant response rating (corn; [6]): 0
Corn plant response rating (corn; [7]): 0
Crabgrass plant response rating (crabgrass; [8]): 9
Crabgrass plant response rating (crabgrass; [1]): 9
Plant response rating, Crabgrass (crabgrass; [2]): 7
Plant response rating, Crabgrass (crabgrass; [3]): 7
Crabgrass plant response rating (crabgrass; [4]): 10
Crabgrass plant response rating (crabgrass; [5]): 10
Crabgrass plant response rating (crabgrass; [6]): 1
Crabgrass plant response rating (crabgrass; [7]): 2
Giant foxtail plant response rating (giant foxtail; [8]): 9
Giant foxtail plant response rating (giant foxtail; [1]): 9
Plant response rating, Giant foxtail (giant foxtail; [2]): 6
Plant response rating, Giant foxtail (giant foxtail; [3]): 6
Giant foxtail plant response rating (giant foxtail; [4]): 10
Giant foxtail plant response rating (giant foxtail; [5]): 10
Giant foxtail plant response rating (giant foxtail; [6]): 0
Giant foxtail plant response rating (giant foxtail; [7]): 4
Morningglory plant response rating (morningglory; [8]): 8
Plant response rating, Morningglory (morningglory; Preemergence, Rate 62 g/ha): 0
Plant response rating, Morningglory (morningglory; Preemergence, Rate 125 g/ha): 0
Morningglory plant response rating (morningglory; [4]): 0
Morningglory plant response rating (morningglory; [5]): 0
Morningglory plant response rating (morningglory; [6]): 2
Morningglory plant response rating (morningglory; [7]): 8
Redroot pigweed plant response rating (pigweed; [8]): 3
Redroot pigweed plant response rating (pigweed; [1]): 4
Plant response rating, Redroot pigweed (pigweed; [2]): 0
Plant response rating, Redroot pigweed (pigweed; [3]): 4
Redroot pigweed plant response rating (pigweed; [4]): 7
Redroot pigweed plant response rating (pigweed; [5]): 10
Redroot pigweed plant response rating (pigweed; [6]): 0
Redroot pigweed plant response rating (pigweed; [7]): 1
Rape plant response rating (rape; [8]): 0
Rape plant response rating (rape; [1]): 0
Plant response rating, Rape (rape; [2]): 0
Plant response rating, Rape (rape; [3]): 0
Rape plant response rating (rape; [4]): 3
Rape plant response rating (rape; [5]): 3
Rape plant response rating (rape; [6]): 0
Rape plant response rating (rape; [7]): 0
Sugarbeets plant response rating (sugar beet; [8]): 0
Sugarbeets plant response rating (sugar beet; [1]): 2
Plant response rating, Sugarbeets (sugar beet; [2]): 0
Plant response rating, Sugarbeets (sugar beet; [3]): 0
Sugarbeets plant response rating (sugar beet; [4]): 4
Sugarbeets plant response rating (sugar beet; [5]): 7
Sugarbeets plant response rating (sugar beet; [6]): 0
Sugarbeets plant response rating (sugar beet; [7]): 0
Wheat plant response rating (wheat; [8]): 0
Wheat plant response rating (wheat; [1]): 4
Plant response rating, Wheat (wheat; [2]): 0
Plant response rating, Wheat (wheat; [3]): 0
Wheat plant response rating (wheat; [4]): 5
Wheat plant response rating (wheat; [5]): 7
Wheat plant response rating (wheat; [6]): 0
Wheat plant response rating (wheat; [7]): 0
Wild oats plant response rating (wild oat; [8]): 0
Wild oats plant response rating (wild oat; [1]): 5
Plant response rating, Wild oats (wild oat; [2]): 0
Plant response rating, Wild oats (wild oat; [3]): 5
Wild oats plant response rating (wild oat; [4]): 9
Wild oats plant response rating (wild oat; [5]): 9
Wild oats plant response rating (wild oat; [6]): 0
Wild oats plant response rating (wild oat; [7]): 0
Nutsedge plant response rating (purple nutsedge; [8]): 0
Nutsedge plant response rating (purple nutsedge; [1]): 0
Plant response rating, Nutsedge (purple nutsedge; [2]): 0
Plant response rating, Nutsedge (purple nutsedge; [3]): 0
Nutsedge plant response rating (purple nutsedge; [4]): 0
Nutsedge plant response rating (purple nutsedge; [6]): 0
Nutsedge plant response rating (purple nutsedge; [7]): 0
Rice plant response rating (rice; [9]): 0
Rice plant response rating (rice; [10]): 0
Rice plant response rating (rice; [11]): 0
Rice plant response rating (rice; [12]): 0
S. Flatsedge plant response rating (smallflower flatsedge; [9]): 0
S. Flatsedge plant response rating (smallflower flatsedge; [10]): 0
S. Flatsedge plant response rating (smallflower flatsedge; [11]): 0
S. Flatsedge plant response rating (smallflower flatsedge; [12]): 0
Ducksalad plant response rating (duck salad; [9]): 0
Ducksalad plant response rating (duck salad; [10]): 0
Ducksalad plant response rating (duck salad; [11]): 0
Ducksalad plant response rating (duck salad; [12]): 0
Barnyardgrass plant response rating (bamyardgrass; [9]): 0
Barnyardgrass plant response rating (bamyardgrass; [10]): 0
Barnyardgrass plant response rating (bamyardgrass; [11]): 0
Barnyardgrass plant response rating (bamyardgrass; [12]): 0
